Measured values: PMC11831473 (Advanced Science, 2024)

Molecular target: T1, Tumor necrosis factor receptor-associated factor 4 (TRAF4) (Homo sapiens, UniProt Q9BUZ4)
T1 construct: GFP-TRAF4 (MST)
T1 sequence (Q9BUZ4 1-470): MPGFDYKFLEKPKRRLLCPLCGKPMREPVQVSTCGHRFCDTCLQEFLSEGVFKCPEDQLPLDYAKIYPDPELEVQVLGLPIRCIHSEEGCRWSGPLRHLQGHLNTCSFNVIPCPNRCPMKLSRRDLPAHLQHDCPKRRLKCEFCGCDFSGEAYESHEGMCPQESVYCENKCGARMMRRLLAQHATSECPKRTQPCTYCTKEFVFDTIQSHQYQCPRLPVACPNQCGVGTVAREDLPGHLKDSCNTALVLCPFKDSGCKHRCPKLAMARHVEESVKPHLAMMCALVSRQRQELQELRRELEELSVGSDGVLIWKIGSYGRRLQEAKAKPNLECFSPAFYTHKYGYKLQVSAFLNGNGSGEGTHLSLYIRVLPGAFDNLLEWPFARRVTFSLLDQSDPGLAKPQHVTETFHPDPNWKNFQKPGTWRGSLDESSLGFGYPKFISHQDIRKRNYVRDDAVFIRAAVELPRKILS
Assay: ITC (Kd […]); also MST (Kd […]), competition of biotin-OA pull-down, CETSA
Format: binding

COc1c(O)cc2oc(-c3ccccc3)cc(=O)c2c1O [OA, Oroxylin A] was tested, and the Kd was 1100 nM.
